Test results from patent US5049494A, “Conversion of mannose to fructose” (Allied-Signal Inc., priority 1989, dated 1991).

Test system: immobilized mannose isomerase
Details: 0.4 g immobilized enzyme, 40° C., 5 ml of 0.1M sugar solution, after 18 hours
Method: Mannose isomerase activity was typically determined at 40° C. using a feedstock containing 0.1M D-mannose and 0.2M Tris buffer at pH 6.5. Mannose isomerase activity was determined in extracts primarily by measuring mannose-dependent formation of fructose according to the method described by J. H. Roe, J Biol. Chem. 107: 15-19 (1934). Assay mixtures (1 ml) containing 200 mM Tris buffer, pH 7, 100 mM D-mannose, and appropriately diluted cell extract were incubated at 40° C. After 15 min., 0.2 ml of each reaction mixture was transferred to a separate tube and 0.2 ml of ethanol containing 0.1% (wt/vol) resorcinol and 0.6 ml of 10N HCl was added. The tubes were incubated at 80° C. for 8 min, and then placed in ice water to stop the reaction. The absorbance at 484 nm was determined and compared to a standard curve relating absorbance to fructose concentration. An absorbance of 0.1 was equivalent to 150 nmoles of fructose per ml of assay mixture. The conversion of mannose to fructose (as well as any reactions with other sugars) was also determined using HPLC and known standards.
A similar set of experiments was used to test the behavior of the enzyme in the presence of other sugar substrates. For such experiments a mixed sugar feed was prepared approximating the ratios of hemicellulose-derived sugars identified in sulfite waste liquor streams and containing (in grams per liter of 0.2M Tris buffer at pH 7) galactose (15.9), glucose (15.9), mannose (40.3), arabinose (8.0), and xylose (15.2),.

| SMILES | loss of sugar |
| --- | --- |
| O=C[C@H](O)[C@@H](O)[C@@H](O)[C@H](O)CO [D-galactose] | no detectable loss |
| O=C[C@@H](O)[C@@H](O)[C@H](O)CO [D-lyxose] | no detectable loss |
| O=C[C@H](O)[C@@H](O)[C@H](O)CO [D-xylose] | no detectable loss |
| O=C(CO)[C@@H](O)[C@H](O)CO [D-xylulose] | no detectable loss |
| O=C[C@H](O)[C@@H](O)[C@@H](O)CO [L-arabinose] | no detectable loss |
| O=C[C@H](O)[C@H](O)[C@@H](O)[C@@H](O)CO [L-mannose] | no detectable loss |
| C[C@H](O)[C@H](O)[C@@H](O)[C@@H](O)C=O [L-rhamnose] | no detectable loss |
